Consider 48 compounds from patent US20060252807A1, “Novel ortho-terphenyl inhibitors of p38 kinase and methods of treating inflammatory disorders” (Kalypsys, Inc., priority 2005, published 2006).

A value given as a limit tells only on which side of the number the result lay.

The target in the assay is T1, active p38 alpha enzyme (Upstate Biotechnology) (Homo sapiens, UniProt Q16539).
T1 construct: purchased Upstate Biotechnology
In words: p38α biochemical assay (ATP turnover, luminescent detection, Cambrex PKlight). The settings on record: p38α biochemical assay, Table 1 Biological Activity. The gist of the method:
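Measures total ATP turnover by luminescence after human p38α phosphorylates full MapkapK2 protein. Final ATP is 1.4 uM, and incubation runs 2 hours at 30C. The buffer includes 100 mM MgCl2, 4 mM CaCl2 and 1 mg/ml BSA.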

T1 sequence (Q16539 whole entry): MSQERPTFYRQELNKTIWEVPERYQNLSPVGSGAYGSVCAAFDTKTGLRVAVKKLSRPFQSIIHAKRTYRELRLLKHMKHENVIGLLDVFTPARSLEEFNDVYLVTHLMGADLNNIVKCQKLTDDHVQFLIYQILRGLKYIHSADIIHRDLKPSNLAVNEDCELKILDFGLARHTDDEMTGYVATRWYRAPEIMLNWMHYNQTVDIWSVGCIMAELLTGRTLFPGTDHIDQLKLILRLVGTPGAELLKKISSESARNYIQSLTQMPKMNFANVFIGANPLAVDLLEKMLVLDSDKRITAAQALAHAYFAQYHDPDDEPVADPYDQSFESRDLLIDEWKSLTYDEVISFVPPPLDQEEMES

Consider `CC(C)NC(=O)c1csc(-c2c(-c3ccc(F)cc3)noc2CNC(=O)c2cccc(C#N)c2)n1` [Example 605], for which the half-inhibitory concentration (IC50) (as a rule, the midpoint of a concentration-inhibition curve) is greater than 1 µM. As for `CC(C)NC(=O)c1csc(-c2c(-c3ccc(F)cc3)noc2CNC(=O)/C=C/c2ccccc2)n1` [Example 606], the 50% inhibitory concentration (IC50) is greater than 1 µM. Consider `CC(C)NC(=O)c1csc(-c2c(-c3ccc(F)cc3)noc2CNC(=O)c2ccccc2C=O)n1` [Example 607], for which the IC50 is greater than 1 µM. `CC(C)NC(=O)c1csc(-c2c(-c3ccc(F)cc3)noc2CNC(=O)c2ccc(C=O)cc2)n1` [Example 608] gave an IC50 greater than 1 µM. Consider `Cc1ccc(C(=O)NCc2onc(-c3ccc(F)cc3)c2-c2nc(C(=O)NC(C)C)cs2)c(C)c1` [Example 609], for which the IC50 is greater than 1 µM. For the compound `Cc1ccccc1CC(=O)NCc1onc(-c2ccc(F)cc2)c1-c1nc(C(=O)NC(C)C)cs1` [Example 610], the IC50 is greater than 1 µM. Next, `Cc1cccc(C(=O)NCc2onc(-c3ccc(F)cc3)c2-c2nc(C(=O)NC(C)C)cs2)c1C` [Example 611]: greater than 1 µM; `Cc1ccc(C)c(C(=O)NCc2onc(-c3ccc(F)cc3)c2-c2nc(C(=O)NC(C)C)cs2)c1` [Example 612]: greater than 1 µM. As to `Cc1cc(C)cc(C(=O)NCc2onc(-c3ccc(F)cc3)c2-c2nc(C(=O)NC(C)C)cs2)c1` [Example 613], the IC50 is greater than 1 µM. In the case of `Cc1ccc(C(=O)NCc2onc(-c3ccc(F)cc3)c2-c2nc(C(=O)NC(C)C)cs2)cc1C` [Example 614], the IC50 is greater than 1 µM.

The compound `CCc1ccc(C(=O)NCc2onc(-c3ccc(F)cc3)c2-c2nc(C(=O)NC(C)C)cs2)cc1` [Example 615] registered an IC50 greater than 1 µM. Take `COc1ccc(C(=O)NCc2onc(-c3ccc(F)cc3)c2-c2nc(C(=O)NC(C)C)cs2)cc1` [Example 616]: the IC50 was greater than 1 µM. Next, `Cc1cccc(C(=O)NCc2onc(-c3ccc(F)cc3)c2-c2nc(C(=O)NC(C)C)cs2)c1O` [Example 617]: greater than 1 µM; `CC(C)NC(=O)c1csc(-c2c(-c3ccc(F)cc3)noc2CNC(=O)Cc2ccccc2O)n1` [Example 618]: greater than 1 µM.

In turn, `CC(C)NC(=O)c1csc(-c2c(-c3ccc(F)cc3)noc2CNC(=O)Cc2cccc(O)c2)n1` [Example 619] displayed an IC50 of no more than 1 µM. Next, `Cc1ccc(O)c(C(=O)NCc2onc(-c3ccc(F)cc3)c2-c2nc(C(=O)NC(C)C)cs2)c1` [Example 620]: greater than 1 µM; `CC(C)NC(=O)c1csc(-c2c(-c3ccc(F)cc3)noc2CNC(=O)c2cc(O)ccc2O)n1` [Example 621]: greater than 1 µM. `CC(C)NC(=O)c1csc(-c2c(-c3ccc(F)cc3)noc2CNC(=O)c2cccc(O)c2O)n1` [Example 622] displayed an IC50 greater than 1 µM. Regarding `CC(C)NC(=O)c1csc(-c2c(-c3ccc(F)cc3)noc2CNC(=O)c2ccc(O)cc2O)n1` [Example 623], the IC50 was greater than 1 µM. As to `Cc1ccc(C(=O)NCc2onc(-c3ccc(F)cc3)c2-c2nc(C(=O)NC(C)C)cs2)cc1F` [Example 624], the IC50 is greater than 1 µM. On to `Cc1ccc(F)cc1C(=O)NCc1onc(-c2ccc(F)cc2)c1-c1nc(C(=O)NC(C)C)cs1` [Example 625], for which the IC50 was greater than 1 µM. `CC(C)NC(=O)c1csc(-c2c(-c3ccc(F)cc3)noc2CNC(=O)c2ccccc2Cl)n1` [Example 626] gave an IC50 greater than 1 µM.

As to `CC(C)NC(=O)c1csc(-c2c(-c3ccc(F)cc3)noc2CNC(=O)c2ccc(Cl)nc2)n1` [Example 627], the IC50 was greater than 1 µM.

`CC(C)NC(=O)c1csc(-c2c(-c3ccc(F)cc3)noc2CNC(=O)c2cccnc2Cl)n1` [Example 628] displayed an IC50 greater than 1 µM. To `CC(C)NC(=O)c1csc(-c2c(-c3ccc(F)cc3)noc2CNC(=O)c2ccnc(Cl)c2)n1` [Example 629] belongs greater than 1 µM; to `CC(C)NC(=O)c1csc(-c2c(-c3ccc(F)cc3)noc2CNC(=O)c2cc(Cl)ccn2)n1` [Example 630], greater than 1 µM; to `CC(C)NC(=O)c1csc(-c2c(-c3ccc(F)cc3)noc2CNC(=O)c2ccncc2Cl)n1` [Example 631], no more than 1 µM. Compound `CC(C)NC(=O)c1csc(-c2c(-c3ccc(F)cc3)noc2CNC(=O)c2c(F)cccc2F)n1` [Example 632] had an IC50 greater than 1 µM. Next, `CC(C)NC(=O)c1csc(-c2c(-c3ccc(F)cc3)noc2CNC(=O)c2cccc(F)c2F)n1` [Example 633]: greater than 1 µM. Take `CC(C)NC(=O)c1csc(-c2c(-c3ccc(F)cc3)noc2CNC(=O)c2ccc(F)cc2F)n1` [Example 634]: the IC50 is greater than 1 µM. The compound `CC(C)NC(=O)c1csc(-c2c(-c3ccc(F)cc3)noc2CNC(=O)c2cc(F)cc(F)c2)n1` [Example 635] returned an IC50 greater than 1 µM. As for `CC(C)NC(=O)c1csc(-c2c(-c3ccc(F)cc3)noc2CNC(=O)c2ccc(F)c(F)c2)n1` [Example 636], the IC50 is greater than 1 µM. With `CC(CC(=O)NCc1onc(-c2ccc(F)cc2)c1-c1nc(C(=O)NC(C)C)cs1)CC(C)(C)C` (stereo not drawn) [Example 637], the IC50 was greater than 1 µM. For the compound `CC(C)NC(=O)c1csc(-c2c(-c3ccc(F)cc3)noc2CNC(=O)c2cc3ccccc3o2)n1` [Example 638], the IC50 is greater than 1 µM. On to `CC(C)NC(=O)c1csc(-c2c(-c3ccc(F)cc3)noc2CNC(=O)C2CCc3ccccc32)n1` (stereo not drawn) [Example 639], for which the IC50 was greater than 1 µM. Next, `CC(C)NC(=O)c1csc(-c2c(-c3ccc(F)cc3)noc2CNC(=O)C(Cl)(Cl)Cl)n1` [Example 640]: greater than 1 µM; `CC(C)NC(=O)c1csc(-c2c(-c3ccc(F)cc3)noc2CNC(=O)/C=C/c2ccccc2O)n1` [Example 641]: greater than 1 µM. As for `CC(=O)c1ccc(C(=O)NCc2onc(-c3ccc(F)cc3)c2-c2nc(C(=O)NC(C)C)cs2)cc1` [Example 642], the IC50 is greater than 1 µM. Take `CC(C)NC(=O)c1csc(-c2c(-c3ccc(F)cc3)noc2CNC(=O)/C=C/c2cccc(O)c2)n1` [Example 643]: the IC50 is greater than 1 µM. In turn, `CC(=O)c1cccc(C(=O)NCc2onc(-c3ccc(F)cc3)c2-c2nc(C(=O)NC(C)C)cs2)c1` [Example 644] returned an IC50 greater than 1 µM. Regarding `CC(=O)c1ccccc1C(=O)NCc1onc(-c2ccc(F)cc2)c1-c1nc(C(=O)NC(C)C)cs1` [Example 645], the IC50 is greater than 1 µM. In turn, `CC(C)NC(=O)c1csc(-c2c(-c3ccc(F)cc3)noc2CNC(=O)c2ccc(C(C)C)cc2)n1` [Example 646] registered an IC50 greater than 1 µM. Turning to `Cc1ccccc1CCC(=O)NCc1onc(-c2ccc(F)cc2)c1-c1nc(C(=O)NC(C)C)cs1` [Example 647], the IC50 was greater than 1 µM. `Cc1cccc(CCC(=O)NCc2onc(-c3ccc(F)cc3)c2-c2nc(C(=O)NC(C)C)cs2)c1` [Example 648]: the IC50 is greater than 1 µM. The compound `CCC(C(=O)NCc1onc(-c2ccc(F)cc2)c1-c1nc(C(=O)NC(C)C)cs1)c1ccccc1` (stereo not drawn) [Example 649] gave an IC50 greater than 1 µM. `Cc1cc(C)c(C(=O)NCc2onc(-c3ccc(F)cc3)c2-c2nc(C(=O)NC(C)C)cs2)c(C)c1` [Example 650] yielded an IC50 greater than 1 µM.

Turning to `CCCc1ccc(C(=O)NCc2onc(-c3ccc(F)cc3)c2-c2nc(C(=O)NC(C)C)cs2)cc1` [Example 651], the concentration for half-maximal inhibition (IC50) was greater than 1 µM. In the case of `CC(C)NC(=O)c1csc(-c2c(-c3ccc(F)cc3)noc2CNC(=O)c2ccc3c(c2)OCO3)n1` [Example 652], the IC50 is greater than 1 µM.
